{
  "source": "patent US6274619A",
  "about": "“Amidino substituted tetrahydrobenzo thiophene or furan derivatives and their use as urokinase inhibitors” (Fujisawa Pharmaceutical Co., Ltd., priority 1996, dated 2001)",
  "target": "T1, human high molecular weight urokinase (Homo sapiens, UniProt P00749)",
  "T1 construct": "purchased Fujisawa Pharmaceutical Co., Ltd",
  "test": "Urokinase inhibiting effect (chromogenic substrate S-2288)",
  "format": "biochemical",
  "details": "25 IU/ml urokinase, substrate S-2288, pH 7.5, 37° C., 30 minutes, A405",
  "experimental": "Now in order to show the utility of the object compound (I) and pharmaceutically acceptable salts, the test datum on urokinase inhibiting effect of the representative compound of the compound (I) of this invention is shown in the following.\nTest Compound was incubated at desired concentrations with 25 International Units (IU)/ml human high molecular weight urokinase (Fujisawa Pharmaceutical Co., Ltd.) and urokinase substrate (S-2288, H-D-Isoleucyl-L-prolyl-L-arginine-p-nitroaniline dihydrochloride; Chromagenix, Sweden; Japan distributors Daiichikagakuyakuhin Co., Ltd.) in a 100 μl final volume of 50 mM Tris, 100 mM NaCl, 1 mM Na2 EDTA, 0.01% (v/v) polyoxyethylenesorbitan monooleate (Tween 80), pH 7.5 (Buffer Z). Incubations were carried out at 37° C. for 30 minutes. Color was quantitated by measuring absorbance at 405 nm (A405) using EL312 Automated Microplate Reader.",
  "note": "Where a name gives a salt, the structure may show the parent alone.",
  "data": [
    {"compound": "CCCC=C1CCCc2sc(C(=N)N)cc21", "note": "[Compound A, 2-Amidino-4-n-butylidene-4,5,6,7-tetrahydrobenzo[b]thiophene hydrochloride]", "values": [
      {"measurement": "IC50", "result": 470, "unit": "nM"}
    ]}
  ]
}
